Columns and labels:
[1] = test system: PK activity, ATP levels, RBC parameters; conditions: mouse model of beta-thalassemia; cited from earlier work
[2] = target: T1, human pyruvate kinase R (PKR) (Homo sapiens, UniProt P30613); test: Biochemical assay for activation of pyruvate kinase R (Kinase-Glo luminescence, ATP generation); conditions: for AC50: PKR biochemical assay, 0.1 nM PKR; for Emax: maximal activation level relative to the activation level achieved by AG-348 @ 10 μM
T1 construct: Human pyruvate kinase R (PKR), residues 14-574; 6xHis (N, cleaved yes); 8xArg (N, cleaved yes); SUMO (N, cleaved yes); host or cells: E. coli
T1 sequence (P30613 14-574): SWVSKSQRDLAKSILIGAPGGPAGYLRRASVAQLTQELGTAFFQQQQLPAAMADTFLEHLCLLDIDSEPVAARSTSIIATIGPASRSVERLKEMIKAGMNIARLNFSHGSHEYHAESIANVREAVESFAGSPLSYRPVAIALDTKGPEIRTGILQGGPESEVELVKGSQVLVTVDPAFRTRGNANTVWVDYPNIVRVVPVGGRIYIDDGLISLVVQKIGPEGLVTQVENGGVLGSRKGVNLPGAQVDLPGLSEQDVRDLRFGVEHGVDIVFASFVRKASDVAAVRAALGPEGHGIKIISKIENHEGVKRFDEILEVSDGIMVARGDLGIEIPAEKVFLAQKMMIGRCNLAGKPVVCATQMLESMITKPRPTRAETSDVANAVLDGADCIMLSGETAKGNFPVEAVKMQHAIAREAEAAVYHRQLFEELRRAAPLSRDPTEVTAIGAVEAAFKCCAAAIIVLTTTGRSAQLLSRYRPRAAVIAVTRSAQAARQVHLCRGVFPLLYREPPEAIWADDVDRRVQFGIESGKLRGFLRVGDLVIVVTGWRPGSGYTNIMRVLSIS
Experimental: Human pyruvate kinase R (PKR), residues 14-574, and human pyruvate kinase M2, residues 1-531, were cloned into expression plasmids and obtained from ATUM Bio (Newark, CA). Proteins were translated as fusions with 6×-His,8×-Arg, and SUMO at the N-terminus. A third construct of human PKR was truncated, residues 50-574, and similarly cloned for use in crystallography experiments. All proteins were cloned, expressed in E. coli, and purified using similar protocols. Cells were grown at 30° C. in Luria-Bertani broth supplemented with 0.4% glucose to OD600=0.8 and induced with 0.4 mM IPTG at 16° C. for 18 hours. Cells were harvested by centrifugation, resuspended in 50 mM potassium phosphate pH 8.0, 500 mM NaCl, 25 mM imidazole pH 8.0, and 3 mM β-mercaptoethanol. Cells were lysed using a LM20 microfluidizer from Microfluidics (Westwood, MA). The crude lysate was immediately supplemented with 0.2 mM phenylmethylsulfonyl fluoride (PMSF) and centrifuged at 20,000 g for 20 minutes. The soluble fraction was subsequently incubated with 2 mL Ni-NTA (GE Healthcare) per 1,000 ODs for 1 hour at 4° C. Following incubation with the Ni-NTA resin, lysate was removed by pelleting resin at 2,500 g for 3 minutes and washed 3 times with 9 bed volumes of 50 mM potassium phosphate pH 8.0, 500 mM NaCl, 25 mM imidazole, and 3 mM β-mercaptoethanol. Following the batch wash Ni-NTA resin was loaded onto a gravity column and His-tagged protein was eluted with 6 bed volumes of 10 mM Tris/HCl pH 8.0, 200 mM NaCl, 500 mM imidazole, and 3 mM β-mercaptoethanol. Eluted protein was dialyzed overnight against 10 mM Tris/HCl pH 8.0, 200 mM NaCl, and 1 mM DTT and the 6×-His-8×-Arg-SUMO-tag was cleaved using a 20:1 molar ratio of protein:3C protease. The protein was purified by anion exchange chromatography on a HiTrapQ or MonoQ 10/100 GL column (GE Healthcare) via a linear NaCl gradient and twice by size exclusion chromatography using a Superdex S200 26/60 column (GE Healthcare) run in 10 mM Tris/HCl pH 8.0, 200 mM NaCl, 10 mM MgCl2, 1 mM DTT. Proteins were concentrated to ˜12 mg/mL for crystallization and flash frozen for storage.
Activation of pyruvate kinase R (PKR) and pyruvate kinase M2 (PKM2) were measured using a luminescence based measurement of ATP generation and the Kinase-Glo luminescent kinase reagent kit. 0.1 nM of PKR or PKM2 was incubated for 1 hour with 0.3 mM ADP, 2 mM FBP, 1% DMSO, compound and Assay Buffer mix (500 mM Tris/HCl pH 7.5, 500 mM NaCl, 50 mM MgCl2, BSA, and 2 mM DTT, in a total reaction volume of 30 uL. After one hour PEP was added to the reaction at a final concentration of 0.1 mM and incubated for another hour at room temperature. 30 uL of KinaseGlo reagent was added and the reaction was incubated for 15 minutes. Endpoint luminescence data was measured using an EnVision plate reader (PerkinElmer). The assay results are provided in Table 2 for PKR.

[3] = target: T2, Pyruvate Kinase M2 (PKM2) in H1299 cells (Homo sapiens, UniProt P14618); test: Cell based assay for activation of pyruvate kinase M2 in lung carcinoma cell line (H1299, NADH/LDH coupled assay of lysate); conditions: PKM2 cellular assay; for AC50: H1299 cells, 90 minutes with compound; for PKM2 % activation: maximal activation level relative to the activation level achieved by AG-348 @ 10 μM
T2 construct: endogenous in cells; host or cells: H1299 cells
T2 sequence (P14618 2-531 limits assumed): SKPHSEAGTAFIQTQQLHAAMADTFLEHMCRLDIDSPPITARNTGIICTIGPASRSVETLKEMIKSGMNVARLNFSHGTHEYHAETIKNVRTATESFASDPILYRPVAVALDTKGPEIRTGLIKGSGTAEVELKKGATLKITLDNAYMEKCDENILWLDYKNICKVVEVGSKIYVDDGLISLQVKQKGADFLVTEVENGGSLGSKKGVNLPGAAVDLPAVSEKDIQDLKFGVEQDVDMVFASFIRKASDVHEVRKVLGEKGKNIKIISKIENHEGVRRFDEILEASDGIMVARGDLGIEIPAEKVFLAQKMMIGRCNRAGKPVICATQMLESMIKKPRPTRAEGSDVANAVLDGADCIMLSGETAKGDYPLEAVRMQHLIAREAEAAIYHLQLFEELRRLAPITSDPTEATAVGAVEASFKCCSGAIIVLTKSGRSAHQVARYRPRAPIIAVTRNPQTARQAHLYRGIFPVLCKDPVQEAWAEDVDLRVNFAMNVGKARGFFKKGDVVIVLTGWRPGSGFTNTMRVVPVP
Experimental: H1299 cells were seeded in 96-well plates at 2,000 cells/well (100 uL). Treated plates were incubated overnight at 37° C. with 5% CO2. Compounds were diluted in complete media and added to cells in the presence of 1% DMSO. Cells were incubated with compound for 90 minutes at 37° C. and 5% CO2 before washing three times with PBS to remove residual compound and then lysed in lysis buffer (Cell Signaling). Cell lysate was analyzed using the NADH coupled assay described below with a reaction mixture of 180 uM NADH, 2 mM ADP, 0.5 units of LDH and 0.5 mM of PEP. PKM2 activity was measured at steady state using a coupled enzyme activation system based on NADH consumption. PKM2 produces pyruvate and the coupled system uses lactate dehydrogenase (LDH) to reduce pyruvate to lactate with the concomitant oxidation of NADH to NAD^+. Conversion of NADH to NAD^+ was monitored using a SPECTROstar Nano plate reader (BMG Labtech) at a wavelength of 340 nm and subtraction of background absorbance measured at 750 nm. The change in NADH absorbance after PEP addition was monitored and slope obtained by subtracting baseline at 750 nm followed by least squares fitting to a simple linear regression model. A 10-point curve was generated to calculate the AC50 values by fitting the rates of NADH consumption against increasing concentration of compound.

| AC50 [2] | Emax [2] | AC50 [3] | PKM2 % activation [3] | SMILES | PK activity and ATP levels [1] | RBC parameters [1] |
| --- | --- | --- | --- | --- | --- | --- |
| 1800 nM | 66% |  |  | O=C1COc2c(F)cccc2C(C(=O)N2Cc3cn(S(=O)(=O)c4cnn(CC(F)F)c4)nc3C2)N1 (stereo not drawn) [Compound 7, 5-(2-{[1-(2,2-difluoroethyl)-1H-pyrazol-4-yl]sulfonyl}-2H,4H,5H,6H-pyrrolo[3,4-c]pyrazole-5-carbonyl)-9-fluoro-2,3,4,5-tetrahydro-1,4-benzoxazepin-3-one] |  |  |
| 1900 nM | 95% |  |  | CC1(CC(=O)N2Cc3cn(S(=O)(=O)c4cnn(CC(F)F)c4)nc3C2)C(=O)Nc2ccccc21 (stereo not drawn) [Compound 8, 3-[2-(2-{[1-(2,2-difluoroethyl)-1H-pyrazol-4-yl]sulfonyl}-2H,4H,5H,6H-pyrrolo[3,4-c]pyrazol-5-yl)-2-oxoethyl]-3-methyl-2,3-dihydro-1H-indol-2-one] |  |  |
| 28 nM | 161% | 100 nM | 87% | O=C1Nc2ccccc2C1CC(=O)N1Cc2cn(S(=O)(=O)c3ccc4ncsc4c3)nc2C1 (stereo not drawn) [Compound 9, 3-{2-[2-(1,3-benzothiazole-6-sulfonyl)-2H,4H,5H,6H-pyrrolo[3,4-c]pyrazol-5-yl]-2-oxoethyl}-2,3-dihydro-1H-indol-2-one] |  |  |
| 78 nM | 129% | 14 nM | 165% | O=C1Nc2ccccc2C1CC(=O)N1Cc2cn(S(=O)(=O)c3ccc(OC(F)F)cc3)nc2C1 (stereo not drawn) [Compound 10, 3-(2-{2-[4-(difluoromethoxy)benzenesulfonyl]-2H,4H,5H,6H-pyrrolo[3,4-c]pyrazol-5-yl}-2-oxoethyl)-2,3-dihydro-1H-indol-2-one] |  |  |
| 1700 nM | 77% |  |  | O=C(CN1C(=O)Cc2ccccc21)N1Cc2cn(S(=O)(=O)c3ccc(OC(F)F)cc3)nc2C1 [Compound 11, 1-(2-{2-[4-(difluoromethoxy)benzenesulfonyl]-2H,4H,5H,6H-pyrrolo[3,4-c]pyrazol-5-yl}-2-oxoethyl)-2,3-dihydro-1H-indol-2-one] |  |  |
| 210 nM | 91% |  |  | O=C1COc2ccccc2C(C(=O)N2Cc3cn(S(=O)(=O)c4ccc(OC(F)F)cc4)nc3C2)N1 (stereo not drawn) [Compound 12, 5-{2-[4-(difluoromethoxy)benzenesulfonyl]-2H,4H,5H,6H-pyrrolo[3,4-c]pyrazole-5-carbonyl}-2,3,4,5-tetrahydro-1,4-benzoxazepin-3-one] |  |  |

Further lines, the molecule ahead of its results:

| SMILES | AC50 [2] | Emax [2] | AC50 [3] | PKM2 % activation [3] | PK activity and ATP levels [1] | RBC parameters [1] |
| --- | --- | --- | --- | --- | --- | --- |
| O=C(c1ccc(NS(=O)(=O)c2cccc3cccnc23)cc1)N1CCN(CC2CC2)CC1 [AG-348, Mitapivat] |  |  |  |  | increased | improved |
| O=C1Nc2ccccc2C1CC(=O)N1Cc2cn(S(=O)(=O)c3cnn(CC(F)F)c3)nc2C1 (stereo not drawn) [Compound 1, 3-[2-(2-{[1-(2,2-difluoroethyl)-1H-pyrazol-4-yl]sulfonyl}-2H,4H,5H,6H-pyrrolo[3,4-c]pyrazol-5-yl)-2-oxoethyl]-2,3-dihydro-1H-indol-2-one] | 230 nM | 212% |  |  |  |  |
| O=C(CN1C(=O)Cc2ccccc21)N1Cc2cn(S(=O)(=O)c3cnn(CC(F)F)c3)nc2C1 [Compound 2, 1-[2-(2-{[1-(2,2-difluoroethyl)-1H-pyrazol-4-yl]sulfonyl}-2H,4H,5H,6H-pyrrolo[3,4-c]pyrazol-5-yl)-2-oxoethyl]-2,3-dihydro-1H-indol-2-one] | 410 nM | 32% |  |  |  |  |
| O=C(Cn1c(=O)oc2ccccc21)N1Cc2cn(S(=O)(=O)c3cnn(CC(F)F)c3)nc2C1 [Compound 3, 3-[2-(2-{[1-(2,2-difluoroethyl)-1H-pyrazol-4-yl]sulfonyl}-2H,4H,5H,6H-pyrrolo[3,4-c]pyrazol-5-yl)-2-oxoethyl]-2,3-dihydro-1,3-benzoxazol-2-one] | 1800 nM | 60% |  |  |  |  |
| O=C(Cn1c(=O)[nH]c2ccccc21)N1Cc2cn(S(=O)(=O)c3cnn(CC(F)F)c3)nc2C1 [Compound 4, 1-[2-(2-{[1-(2,2-difluoroethyl)-1H-pyrazol-4-yl]sulfonyl}-2H,4H,5H,6H-pyrrolo[3,4-c]pyrazol-5-yl)-2-oxoethyl]-2,3-dihydro-1H-1,3-benzodiazol-2-one] | 10000 nM | 78% |  |  |  |  |
| O=C1COc2ccccc2C(C(=O)N2Cc3cn(S(=O)(=O)c4cnn(CC(F)F)c4)nc3C2)N1 (stereo not drawn) [Compound 5, 5-(2-{[1-(2,2-difluoroethyl)-1H-pyrazol-4-yl]sulfonyl}-2H,4H,5H,6H-pyrrolo[3,4-c]pyrazole-5-carbonyl)-2,3,4,5-tetrahydro-1,4-benzoxazepin-3-one] | 490 nM | 91% |  |  |  |  |
| O=C1Cc2ccccc2C(C(=O)N2Cc3cn(S(=O)(=O)c4cnn(CC(F)F)c4)nc3C2)N1 (stereo not drawn) [Compound 6, 1-(2-{[1-(2,2-difluoroethyl)-1H-pyrazol-4-yl]sulfonyl}-2H,4H,5H,6H-pyrrolo[3,4-c]pyrazole-5-carbonyl)-1,2,3,4-tetrahydroisoquinolin-3-one] | 4400 nM | 84% |  |  |  |  |

From US20240408107A1, “LACTAM PYRROLIDINE-PYRAZOLES AS PYRUVATE KINASE ACTIVATORS” (Global Blood Therapeutics, Inc., priority 2021, published 2024)
